pIC50: −log10 of the molar value. ≈ marks a conversion by molar mass, not a printed value. Blank lines part the entries; values can stand above or below the compound they belong to.
Key:
[1] = biological target: Phosphatidylinositol 4,5-bisphosphate 3-kinase catalytic subunit alpha isoform (Homo sapiens, UniProt P42336); assay: Inhibition of PI3Kalpha (unknown origin) using PIP2 as substrate preincubated for 15 mins followed by substrate addition measured after 60 mins by HTRF method
[2] = biological target: Phosphatidylinositol 4,5-bisphosphate 3-kinase catalytic subunit beta isoform (Homo sapiens, UniProt P42338); assay: Inhibition of PI3Kbeta (unknown origin) using PIP2 as substrate preincubated for 15 mins followed by substrate addition measured after 60 mins by HTRF method
Chain of Phosphatidylinositol 4,5-bisphosphate 3-kinase catalytic subunit beta isoform (P42338 whole entry, canonical isoform): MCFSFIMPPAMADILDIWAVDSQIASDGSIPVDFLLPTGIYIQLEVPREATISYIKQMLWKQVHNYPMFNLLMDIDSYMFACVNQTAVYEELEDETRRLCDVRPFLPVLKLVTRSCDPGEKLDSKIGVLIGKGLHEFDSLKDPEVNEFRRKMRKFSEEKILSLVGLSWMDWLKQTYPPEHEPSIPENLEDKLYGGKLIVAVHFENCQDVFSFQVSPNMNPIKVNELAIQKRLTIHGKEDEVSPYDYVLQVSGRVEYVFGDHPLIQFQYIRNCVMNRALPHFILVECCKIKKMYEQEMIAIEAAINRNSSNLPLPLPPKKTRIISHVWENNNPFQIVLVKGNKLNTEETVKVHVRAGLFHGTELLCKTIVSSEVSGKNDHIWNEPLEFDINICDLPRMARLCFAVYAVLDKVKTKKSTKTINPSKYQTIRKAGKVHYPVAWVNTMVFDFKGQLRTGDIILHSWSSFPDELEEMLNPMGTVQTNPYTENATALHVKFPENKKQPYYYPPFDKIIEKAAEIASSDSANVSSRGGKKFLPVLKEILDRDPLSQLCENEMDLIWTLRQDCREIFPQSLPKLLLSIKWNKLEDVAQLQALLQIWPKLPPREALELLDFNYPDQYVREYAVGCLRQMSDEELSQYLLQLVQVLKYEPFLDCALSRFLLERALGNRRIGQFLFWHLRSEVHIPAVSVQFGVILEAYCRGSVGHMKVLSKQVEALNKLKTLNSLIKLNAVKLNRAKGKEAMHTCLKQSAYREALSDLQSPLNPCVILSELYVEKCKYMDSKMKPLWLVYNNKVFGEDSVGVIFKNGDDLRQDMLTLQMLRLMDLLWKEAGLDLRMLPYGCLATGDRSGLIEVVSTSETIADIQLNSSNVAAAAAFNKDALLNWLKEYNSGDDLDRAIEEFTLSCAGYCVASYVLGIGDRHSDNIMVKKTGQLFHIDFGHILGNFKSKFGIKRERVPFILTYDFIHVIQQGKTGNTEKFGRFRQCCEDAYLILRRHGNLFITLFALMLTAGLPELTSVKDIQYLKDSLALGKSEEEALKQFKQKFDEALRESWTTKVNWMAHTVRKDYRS

[3] = biological target: Phosphatidylinositol 4,5-bisphosphate 3-kinase catalytic subunit gamma isoform (Homo sapiens, UniProt P48736); assay: Inhibition of PI3Kgamma (unknown origin) using PIP2 as substrate preincubated for 15 mins followed by substrate addition measured after 60 mins by HTRF method
Chain of Phosphatidylinositol 4,5-bisphosphate 3-kinase catalytic subunit gamma isoform (P48736 whole entry, canonical isoform): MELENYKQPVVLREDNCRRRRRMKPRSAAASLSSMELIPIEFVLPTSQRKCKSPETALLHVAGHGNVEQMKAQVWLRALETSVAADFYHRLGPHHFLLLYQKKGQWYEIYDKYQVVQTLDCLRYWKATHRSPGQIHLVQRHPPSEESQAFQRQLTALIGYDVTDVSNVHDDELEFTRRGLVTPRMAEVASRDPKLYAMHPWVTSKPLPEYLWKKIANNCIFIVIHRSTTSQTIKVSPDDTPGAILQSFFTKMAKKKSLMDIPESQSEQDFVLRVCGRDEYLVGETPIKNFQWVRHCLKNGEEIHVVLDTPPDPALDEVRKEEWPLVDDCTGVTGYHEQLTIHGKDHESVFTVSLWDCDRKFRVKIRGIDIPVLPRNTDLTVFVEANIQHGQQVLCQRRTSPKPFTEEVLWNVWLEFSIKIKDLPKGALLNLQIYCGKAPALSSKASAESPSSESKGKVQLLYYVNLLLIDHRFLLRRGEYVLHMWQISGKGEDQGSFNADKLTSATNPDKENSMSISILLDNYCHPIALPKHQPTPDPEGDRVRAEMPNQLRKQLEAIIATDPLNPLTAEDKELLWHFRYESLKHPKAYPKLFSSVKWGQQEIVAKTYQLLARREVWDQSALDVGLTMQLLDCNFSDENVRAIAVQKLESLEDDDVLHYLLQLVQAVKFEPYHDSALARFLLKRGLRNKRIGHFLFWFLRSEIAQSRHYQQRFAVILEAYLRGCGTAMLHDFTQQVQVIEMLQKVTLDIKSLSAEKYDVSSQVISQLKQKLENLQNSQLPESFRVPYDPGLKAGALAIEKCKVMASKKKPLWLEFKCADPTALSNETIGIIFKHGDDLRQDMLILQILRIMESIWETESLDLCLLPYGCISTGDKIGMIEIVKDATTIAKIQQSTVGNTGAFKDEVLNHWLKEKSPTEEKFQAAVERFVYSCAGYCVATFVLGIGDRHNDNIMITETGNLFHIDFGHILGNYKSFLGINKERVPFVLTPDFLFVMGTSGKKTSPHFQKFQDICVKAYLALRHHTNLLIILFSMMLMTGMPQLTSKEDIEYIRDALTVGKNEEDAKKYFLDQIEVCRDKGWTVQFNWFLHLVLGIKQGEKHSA

[4] = biological target: T1, Phosphatidylinositol 4,5-bisphosphate 3-kinase catalytic subunit delta isoform (Homo sapiens, UniProt O00329); assay: Inhibition of PI3Kdelta (unknown origin) using PIP2 as substrate preincubated for 15 mins followed by substrate addition measured after 60 mins by HTRF method
T1 sequence (O00329 whole entry): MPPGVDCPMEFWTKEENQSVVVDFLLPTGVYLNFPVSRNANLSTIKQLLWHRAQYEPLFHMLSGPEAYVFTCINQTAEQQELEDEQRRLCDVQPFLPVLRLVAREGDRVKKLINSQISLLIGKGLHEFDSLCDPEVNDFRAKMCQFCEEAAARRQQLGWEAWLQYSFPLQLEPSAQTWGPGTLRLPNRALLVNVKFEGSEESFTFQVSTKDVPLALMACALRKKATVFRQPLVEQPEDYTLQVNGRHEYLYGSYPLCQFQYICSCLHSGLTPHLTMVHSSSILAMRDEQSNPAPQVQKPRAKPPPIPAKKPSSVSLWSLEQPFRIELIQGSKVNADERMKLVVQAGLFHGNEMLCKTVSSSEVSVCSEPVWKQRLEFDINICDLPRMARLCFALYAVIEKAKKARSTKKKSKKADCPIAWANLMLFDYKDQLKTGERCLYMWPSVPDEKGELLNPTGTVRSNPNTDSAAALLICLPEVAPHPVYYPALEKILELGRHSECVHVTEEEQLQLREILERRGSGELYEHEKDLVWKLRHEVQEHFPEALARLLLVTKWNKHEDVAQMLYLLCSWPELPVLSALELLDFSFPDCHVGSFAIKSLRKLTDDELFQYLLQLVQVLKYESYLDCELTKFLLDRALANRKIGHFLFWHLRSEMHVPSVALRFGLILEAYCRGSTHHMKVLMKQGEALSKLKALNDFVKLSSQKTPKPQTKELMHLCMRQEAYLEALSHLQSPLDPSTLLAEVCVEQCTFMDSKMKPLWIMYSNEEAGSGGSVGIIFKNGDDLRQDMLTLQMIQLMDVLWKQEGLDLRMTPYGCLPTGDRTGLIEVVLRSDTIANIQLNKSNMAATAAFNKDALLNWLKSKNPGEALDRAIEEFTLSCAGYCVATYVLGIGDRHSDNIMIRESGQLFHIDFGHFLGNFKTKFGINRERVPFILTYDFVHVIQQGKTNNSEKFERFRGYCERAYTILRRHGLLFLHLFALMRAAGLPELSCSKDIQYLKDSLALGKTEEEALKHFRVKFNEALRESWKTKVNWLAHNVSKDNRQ

Homo sapiens [5] = organism: Homo sapiens; assay: Selectivity ratio of IC50 for PI3Kalpha (unknown origin) to IC50 for PI3Kdelta (unknown origin)
Homo sapiens [6] = organism: Homo sapiens; assay: Selectivity ratio of IC50 for PI3Kbeta (unknown origin) to IC50 for PI3Kdelta (unknown origin)
Homo sapiens [7] = organism: Homo sapiens; assay: Selectivity ratio of IC50 for PI3Kgamma (unknown origin) to IC50 for PI3Kdelta (unknown origin)
[8] = biological target: Voltage-gated inwardly rectifying potassium channel KCNH2 (Homo sapiens, UniProt Q12809); assay: Inhibition of human ERG expressed in CHO cells after 75 mins by fluorescence polarization assay
Chain of Voltage-gated inwardly rectifying potassium channel KCNH2 (Q12809 whole entry): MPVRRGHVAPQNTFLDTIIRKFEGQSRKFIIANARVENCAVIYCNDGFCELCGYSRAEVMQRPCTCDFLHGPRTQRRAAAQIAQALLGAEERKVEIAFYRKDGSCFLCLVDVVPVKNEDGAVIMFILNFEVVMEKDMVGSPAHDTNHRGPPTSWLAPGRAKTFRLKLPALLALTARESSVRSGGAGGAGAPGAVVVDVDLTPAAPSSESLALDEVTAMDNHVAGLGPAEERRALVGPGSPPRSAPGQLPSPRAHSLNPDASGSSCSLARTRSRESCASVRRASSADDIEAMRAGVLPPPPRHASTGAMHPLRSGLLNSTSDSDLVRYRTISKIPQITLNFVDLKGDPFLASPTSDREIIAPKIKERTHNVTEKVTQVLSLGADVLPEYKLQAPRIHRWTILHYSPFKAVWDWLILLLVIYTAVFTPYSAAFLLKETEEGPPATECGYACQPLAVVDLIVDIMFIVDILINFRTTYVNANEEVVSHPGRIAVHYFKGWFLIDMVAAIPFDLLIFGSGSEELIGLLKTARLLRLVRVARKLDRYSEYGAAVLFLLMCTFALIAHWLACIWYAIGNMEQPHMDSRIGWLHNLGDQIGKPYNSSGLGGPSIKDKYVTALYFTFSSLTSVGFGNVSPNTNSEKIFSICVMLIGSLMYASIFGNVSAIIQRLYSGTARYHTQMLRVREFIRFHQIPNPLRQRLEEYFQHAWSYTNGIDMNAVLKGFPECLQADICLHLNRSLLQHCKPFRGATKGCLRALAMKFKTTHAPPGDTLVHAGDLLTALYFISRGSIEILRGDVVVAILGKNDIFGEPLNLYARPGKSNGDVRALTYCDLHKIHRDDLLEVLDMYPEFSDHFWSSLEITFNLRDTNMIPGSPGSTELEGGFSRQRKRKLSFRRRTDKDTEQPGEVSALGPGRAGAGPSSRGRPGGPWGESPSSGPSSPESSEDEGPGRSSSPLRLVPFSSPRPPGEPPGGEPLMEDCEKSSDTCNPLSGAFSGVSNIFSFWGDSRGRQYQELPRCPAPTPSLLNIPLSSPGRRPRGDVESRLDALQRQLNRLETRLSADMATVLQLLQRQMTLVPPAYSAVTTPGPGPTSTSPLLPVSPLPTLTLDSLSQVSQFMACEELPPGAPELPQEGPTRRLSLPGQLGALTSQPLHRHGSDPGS

serum albumin = serum albumin (Homo sapiens, UniProt P02768); assay: Binding affinity to human serum albumin by HPLC analysis; format: ADME; settings: read-out: PB (converted)
Chain of serum albumin (P02768 whole entry): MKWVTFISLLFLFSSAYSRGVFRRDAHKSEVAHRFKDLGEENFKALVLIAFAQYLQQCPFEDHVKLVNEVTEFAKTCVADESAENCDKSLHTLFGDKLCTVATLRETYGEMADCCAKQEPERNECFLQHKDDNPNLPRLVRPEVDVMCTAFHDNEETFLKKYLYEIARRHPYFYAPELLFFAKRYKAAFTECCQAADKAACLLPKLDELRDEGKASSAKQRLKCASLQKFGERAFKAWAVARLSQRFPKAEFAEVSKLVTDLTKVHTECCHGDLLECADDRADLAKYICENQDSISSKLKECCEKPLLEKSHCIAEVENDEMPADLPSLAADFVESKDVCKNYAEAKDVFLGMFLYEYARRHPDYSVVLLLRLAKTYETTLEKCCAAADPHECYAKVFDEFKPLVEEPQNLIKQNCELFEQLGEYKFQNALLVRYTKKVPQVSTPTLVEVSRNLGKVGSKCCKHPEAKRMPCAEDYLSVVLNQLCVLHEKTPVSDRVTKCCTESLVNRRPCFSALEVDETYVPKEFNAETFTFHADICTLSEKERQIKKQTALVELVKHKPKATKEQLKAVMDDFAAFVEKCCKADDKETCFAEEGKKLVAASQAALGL

[9] = Clearance in human microsomes at 0.5 uM in presence of NADPH measured up to 30 mins by LC-MS/MS analysis; format: ADME, Microsome; settings: 0.5 h
[10] = Clearance in rat microsomes at 0.5 uM in presence of NADPH measured up to 30 mins by LC-MS/MS analysis; format: ADME, Microsome; settings: 0.5 h
[11] = Kinetic solubility of the compound in phosphate buffer saline at pH 7.4 after 1 hr by CLND method; format: physicochemical; settings: phosphate buffered saline, read-out: Kinetic_solubility
Homo sapiens [12] = organism: Homo sapiens; assay: Selectivity ratio of IC50 for ASK1 (unknown origin) to IC50 for PI3Kdelta (unknown origin)
Homo sapiens [13] = organism: Homo sapiens; assay: Selectivity ratio of IC50 for Aurora B (unknown origin) to IC50 for PI3Kdelta (unknown origin)
Homo sapiens [14] = organism: Homo sapiens; assay: Selectivity ratio of IC50 for BTK (unknown origin) to IC50 for PI3Kdelta (unknown origin)
Homo sapiens [15] = organism: Homo sapiens; assay: Selectivity ratio of IC50 for CHKA (unknown origin) to IC50 for PI3Kdelta (unknown origin)
Homo sapiens [16] = organism: Homo sapiens; assay: Selectivity ratio of IC50 for CHKB (unknown origin) to IC50 for PI3Kdelta (unknown origin)
Homo sapiens [17] = organism: Homo sapiens; assay: Selectivity ratio of IC50 for DAG beta (unknown origin) to IC50 for PI3Kdelta (unknown origin)
Homo sapiens [18] = organism: Homo sapiens; assay: Selectivity ratio of IC50 for DAG gamma (unknown origin) to IC50 for PI3Kdelta (unknown origin)
Homo sapiens [19] = organism: Homo sapiens; assay: Selectivity ratio of IC50 for DAG zeta (unknown origin) to IC50 for PI3Kdelta (unknown origin)
Homo sapiens [20] = organism: Homo sapiens; assay: Selectivity ratio of IC50 for EGFR (unknown origin) to IC50 for PI3Kdelta (unknown origin)
Homo sapiens [21] = organism: Homo sapiens; assay: Selectivity ratio of IC50 for IKK1 (unknown origin) to IC50 for PI3Kdelta (unknown origin)
Homo sapiens [22] = organism: Homo sapiens; assay: Selectivity ratio of IC50 for IKK2 (unknown origin) to IC50 for PI3Kdelta (unknown origin)
Homo sapiens [23] = organism: Homo sapiens; assay: Selectivity ratio of IC50 for ITK (unknown origin) to IC50 for PI3Kdelta (unknown origin)
Homo sapiens [24] = organism: Homo sapiens; assay: Selectivity ratio of IC50 for JAK2 (unknown origin) to IC50 for PI3Kdelta (unknown origin)
Homo sapiens [25] = organism: Homo sapiens; assay: Selectivity ratio of IC50 for JAK3 (unknown origin) to IC50 for PI3Kdelta (unknown origin)
Homo sapiens [26] = organism: Homo sapiens; assay: Selectivity ratio of IC50 for JNK1 (unknown origin) to IC50 for PI3Kdelta (unknown origin)
Homo sapiens [27] = organism: Homo sapiens; assay: Selectivity ratio of IC50 for LCK (unknown origin) to IC50 for PI3Kdelta (unknown origin)
Homo sapiens [28] = organism: Homo sapiens; assay: Selectivity ratio of IC50 for LRRK2 (unknown origin) to IC50 for PI3Kdelta (unknown origin)
Homo sapiens [29] = organism: Homo sapiens; assay: Selectivity ratio of IC50 for mTOR (unknown origin) to IC50 for PI3Kdelta (unknown origin)
Homo sapiens [30] = organism: Homo sapiens; assay: Selectivity ratio of IC50 for p38alpha (unknown origin) to IC50 for PI3Kdelta (unknown origin)
Homo sapiens [31] = organism: Homo sapiens; assay: Selectivity ratio of IC50 for PIP4K2A (unknown origin) to IC50 for PI3Kdelta (unknown origin)
Homo sapiens [32] = organism: Homo sapiens; assay: Selectivity ratio of IC50 for PI4KA (unknown origin) to IC50 for PI3Kdelta (unknown origin)
Homo sapiens [33] = organism: Homo sapiens; assay: Selectivity ratio of IC50 for PI4KB (unknown origin) to IC50 for PI3Kdelta (unknown origin)
Homo sapiens [34] = organism: Homo sapiens; assay: Selectivity ratio of IC50 for PIK3C2B (unknown origin) to IC50 for PI3Kdelta (unknown origin)
Homo sapiens [35] = organism: Homo sapiens; assay: Selectivity ratio of IC50 for PIK3C3/PIK3R4 (unknown origin) to IC50 for PI3Kdelta (unknown origin)
Homo sapiens [36] = organism: Homo sapiens; assay: Selectivity ratio of IC50 for ROCK (unknown origin) to IC50 for PI3Kdelta (unknown origin)
Homo sapiens [37] = organism: Homo sapiens; assay: Selectivity ratio of IC50 for SPHK1 (unknown origin) to IC50 for PI3Kdelta (unknown origin)
Homo sapiens [38] = organism: Homo sapiens; assay: Selectivity ratio of IC50 for SPHK2 (unknown origin) to IC50 for PI3Kdelta (unknown origin)
Homo sapiens [39] = organism: Homo sapiens; assay: Selectivity ratio of IC50 for SYK (unknown origin) to IC50 for PI3Kdelta (unknown origin)
Homo sapiens [40] = organism: Homo sapiens; assay: Selectivity ratio of IC50 for DNA-PK (unknown origin) to IC50 for PI3Kdelta (unknown origin)
PBMC = assay: Inhibition of cytostim stimulated IFNgamma production in human PBMC […] by electrochemiluminescence assay; format: functional, cell-based

Chain of Phosphatidylinositol 4,5-bisphosphate 3-kinase catalytic subunit alpha isoform (P42336 whole entry, canonical isoform): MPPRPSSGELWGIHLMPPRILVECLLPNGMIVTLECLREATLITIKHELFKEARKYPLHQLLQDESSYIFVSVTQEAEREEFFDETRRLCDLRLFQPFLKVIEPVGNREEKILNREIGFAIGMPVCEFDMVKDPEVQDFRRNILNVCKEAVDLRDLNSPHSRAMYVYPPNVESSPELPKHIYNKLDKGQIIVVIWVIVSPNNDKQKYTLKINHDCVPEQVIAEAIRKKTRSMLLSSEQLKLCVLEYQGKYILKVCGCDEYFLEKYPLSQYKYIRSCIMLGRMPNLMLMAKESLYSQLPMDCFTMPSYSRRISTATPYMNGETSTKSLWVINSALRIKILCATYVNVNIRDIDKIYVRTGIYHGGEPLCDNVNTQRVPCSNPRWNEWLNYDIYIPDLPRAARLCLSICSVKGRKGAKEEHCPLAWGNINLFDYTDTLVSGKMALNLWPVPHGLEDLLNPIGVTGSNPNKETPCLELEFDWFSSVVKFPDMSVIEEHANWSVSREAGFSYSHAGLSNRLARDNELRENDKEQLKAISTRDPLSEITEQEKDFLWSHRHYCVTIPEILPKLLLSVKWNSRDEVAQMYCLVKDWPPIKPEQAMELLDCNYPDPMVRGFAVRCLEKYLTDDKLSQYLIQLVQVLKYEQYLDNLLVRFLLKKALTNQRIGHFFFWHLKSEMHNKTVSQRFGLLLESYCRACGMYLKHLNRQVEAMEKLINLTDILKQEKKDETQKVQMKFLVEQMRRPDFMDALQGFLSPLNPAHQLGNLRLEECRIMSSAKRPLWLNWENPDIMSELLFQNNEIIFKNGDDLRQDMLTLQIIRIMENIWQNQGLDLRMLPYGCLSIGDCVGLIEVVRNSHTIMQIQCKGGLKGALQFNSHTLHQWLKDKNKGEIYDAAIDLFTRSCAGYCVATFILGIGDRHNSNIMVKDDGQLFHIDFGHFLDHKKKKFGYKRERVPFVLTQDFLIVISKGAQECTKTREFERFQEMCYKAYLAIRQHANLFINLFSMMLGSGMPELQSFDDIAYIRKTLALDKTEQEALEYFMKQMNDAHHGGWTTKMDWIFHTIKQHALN

pIC50 [1]: 5.60 | pIC50 [2]: 5.60 | pIC50 [3]: 6.10 | pIC50 [4]: 6.80
SMILES: CS(=O)(=O)Nc1cc(-c2ccc3ccncc3c2)cnc1Cl

pIC50 [1]: 6.40 | pIC50 [2]: 5.60 | pIC50 [3]: 6.50
SMILES: COc1ncc(-c2cc(-c3ncc(CN4C[C@@H](C)O[C@@H](C)C4)o3)c3cn[nH]c3c2)cc1NS(C)(=O)=O

pIC50 [1]: 4.50 | pIC50 [2]: 4.80 | pIC50 [3]: 4.90 | pIC50 [4]: 6.00
SMILES: O=S(=O)(Nc1cc(-c2ccccc2)cnc1Cl)c1ccccc1

pIC50 [1]: < 4.30 | pIC50 [2]: < 4.30 | pIC50 [3]: < 4.30 | pIC50 [4]: 4.10
SMILES: c1cc(-c2ccncc2)c2cc[nH]c2c1

pIC50 [1]: 6.20 | pIC50 [2]: 6.00 | pIC50 [3]: 6.00 | pIC50 [4]: 8.20 | Ratio IC50 (Homo sapiens [5]): > 100 | Ratio IC50 (Homo sapiens [6]): > 100 | Ratio IC50 (Homo sapiens [7]): > 100 | fraction unbound (serum albumin): 0.101 | clearance [9]: 7.9 mL/min/g | clearance [10]: 17.4 mL/min/g | solubility kinetic at 1 h [11]: 12 µg/mL (≈ 27.2 µM) | Ratio IC50 (Homo sapiens [12]): > 100 | Ratio IC50 (Homo sapiens [13]): > 100 | Ratio IC50 (Homo sapiens [14]): > 100 | Ratio IC50 (Homo sapiens [15]): > 100 | Ratio IC50 (Homo sapiens [16]): > 100 | Ratio IC50 (Homo sapiens [17]): > 100 | Ratio IC50 (Homo sapiens [18]): > 100 | Ratio IC50 (Homo sapiens [19]): > 100 | Ratio IC50 (Homo sapiens [20]): > 100 | Ratio IC50 (Homo sapiens [21]): > 100 | Ratio IC50 (Homo sapiens [22]): > 100 | Ratio IC50 (Homo sapiens [23]): > 100 | Ratio IC50 (Homo sapiens [24]): > 100 | Ratio IC50 (Homo sapiens [25]): > 100 | Ratio IC50 (Homo sapiens [26]): > 100 | Ratio IC50 (Homo sapiens [27]): > 100 | Ratio IC50 (Homo sapiens [28]): > 100 | Ratio IC50 (Homo sapiens [29]): > 100 | Ratio IC50 (Homo sapiens [30]): > 100 | Ratio IC50 (Homo sapiens [31]): > 100 | Ratio IC50 (Homo sapiens [32]): > 100 | Ratio IC50 (Homo sapiens [33]): > 100 | Ratio IC50 (Homo sapiens [34]): > 100 | Ratio IC50 (Homo sapiens [35]): > 100 | Ratio IC50 (Homo sapiens [36]): > 100 | Ratio IC50 (Homo sapiens [37]): > 100 | Ratio IC50 (Homo sapiens [38]): > 100 | Ratio IC50 (Homo sapiens [39]): > 100 | Ratio IC50 (Homo sapiens [40]): > 100
SMILES: COc1ncc(C2=CCOCC2)cc1NS(=O)(=O)c1cn(Cc2ccccc2)c(C)n1
pIC50 [8]: < 4.30 | pIC50 (PBMC): 7.30

pIC50 [1]: 5.80 | pIC50 [2]: 6.80 | pIC50 [3]: 6.70 | pIC50 [4]: 6.90
SMILES: CS(=O)(=O)Nc1cc(-c2cnc(N)nc2)cnc1Cl

Reference: ChEMBL document CHEMBL4382269, “Discovery of Potent, Efficient, and Selective Inhibitors of Phosphoinositide 3-Kinase δ through a Deconstruction and Regrowth Approach” (J Med Chem, 2018)
